Like-named read-outs stand apart in the source and are kept apart here.
What was measured:
[1] = Thermodynamic solubility in PBS; type: physicochemical; details: aqueous buffer, thermodynamic from solid; PBS at pH 7.4, room temperature, stirring for 16 hours
From the text: (§1) Solubility and Mouse Microsomal Stability. […] In order to improve the aqueous solubility to support additional biochemical assays we made and characterized several salt forms. The formic acid (FA) salt was recovered after reverse-phase preparative HPLC while using formic acid as a modifier. […] On stirring the free amine in 4M HCl in dioxane, the compound was converted to the HCl salt as a white solid (Scheme 1). […] As a result, the HCl-salt of NUCC-0200590 was used for biophysical assays. The inhibitor was also screened for in vitro stability towards mouse liver microsomes to evaluate its potential metabolism and suitability for future in vivo experiments. The microsomal stability was measured after a 60-minute incubation at 37° C. with mouse liver microsomes. The compound was almost completely consumed by mouse liver microsomes after a 60-minute incubation as only 3.7% of the parent compound remained.

[2] = DMSO needed in PBS to see proton signals in 1H-NMR (aqueous solubility); type: physicochemical; details: PBS (pH 7.4)
From the text: as §1

TRIP8b-HCN1c40 = TRIP8b-HCN1c40 (Homo sapiens (Human), UniProt Q8IYB4); assay: TRIP8b-HCN1c40 AlphaScreen assay; type: binding
TRIP8b-HCN1c40, sequence (Q8IYB4 265-626): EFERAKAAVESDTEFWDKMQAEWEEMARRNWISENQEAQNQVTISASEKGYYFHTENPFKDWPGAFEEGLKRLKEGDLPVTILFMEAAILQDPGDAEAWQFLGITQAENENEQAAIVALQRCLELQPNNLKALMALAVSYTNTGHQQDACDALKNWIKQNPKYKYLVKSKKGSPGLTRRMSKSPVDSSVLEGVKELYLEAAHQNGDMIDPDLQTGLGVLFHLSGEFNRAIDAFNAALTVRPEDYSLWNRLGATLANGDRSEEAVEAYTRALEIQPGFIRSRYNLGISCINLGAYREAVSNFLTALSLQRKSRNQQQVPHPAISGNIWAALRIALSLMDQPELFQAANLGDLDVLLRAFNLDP
Description: AlphaScreen Assay. 20 nM ofGST-tagged HCNlc40 protein (corresponding to the C terminal 40 amino acids of HCN1) was incubated with 200 nM of His-tagged TRIP8b(241-602) and varying concentrations of the test compound as described in our prior report (Han et al., 2015). After a 3 h incubation, anti-GST AlphaScreen acceptor beads were added for 1.5 h followed by AlphaScreen nickel chelate donor beads for 1.5 h. AlphaScreen signal was quantified using a PerkinElmer (Waltham, MA) EnSpire multimode plate reader.

[3] = activity ranges, read-out: TRIP8b-HCN1c40 Alphascreen IC50 activity
[4] = read-out: TRIP8b-HCN1c40 Alphascreen IC50

Compound | solubility thermodynamic at 16 h [1] | DMSO in PBS required to see proton signals in 1H-NMR [2] | IC50 (TRIP8b-HCN1c40; [3]) | IC50 (TRIP8b-HCN1c40; [4])
CN1CCN(Cc2cc(-c3ccc(F)cc3)ccc2OCC(=O)NCc2ccc(Cl)cc2)CC1.O=CO [NUCC-0200590 FA salt, N-(4-chlorobenzyl)-2-((4′-fluoro-3-((4-methylpiperazin-1-yl)methyl)-[1,1′-biphenyl]-4-yl)oxy)acetamide formate] | 45 µM | 15% | – | –
CN1CCN(Cc2cc(-c3ccc(Cl)c(Cl)c3)ccc2OCC(=O)NC2Cc3ccccc3C2)CC1 [NUCC-0201989] | – | – | 1 to 2 µM | 1.3 µM
CN1CCN(Cc2cc(-c3ccc(Cl)c(Cl)c3)ccc2OCC(=O)N2CCc3ccccc3C2)CC1 [NUCC-0201990] | – | – | < 1 µM | < 0.74 µM
CN1CCN(Cc2cc(-c3ccc(Cl)c(Cl)c3)ccc2OCC(=O)N2CCc3cc(Cl)c(Cl)cc32)CC1 [NUCC-0201991] | – | – | < 1 µM | < 0.74 µM
CN1CCN(Cc2cc(-c3ccc(Cl)c(Cl)c3)ccc2OCC(=O)NC2Cc3ccc(Cl)cc3C2)CC1 (stereo not drawn) [NUCC-0201992] | – | – | < 1 µM | < 0.74 µM
CN1CCN(Cc2cc(-c3ccc(Cl)c(Cl)c3)ccc2OCC(=O)N2Cc3ccc(Cl)cc3C2)CC1 [NUCC-0201993] | – | – | 1 to 2 µM | 1.9 µM
CN1CCN(Cc2cc(-c3ccc(Cl)c(Cl)c3)ccc2OCC(=O)NCCc2ccc(C#N)cc2)CC1 [NUCC-0201994] | – | – | 2 to 5 µM | 3.4 µM
CN1CCN(Cc2cc(-c3ccc(Cl)c(Cl)c3)ccc2OCC(=O)NCCc2ccc(C(F)(F)F)cc2)CC1 [NUCC-0201995] | – | – | < 1 µM | < 0.74 µM
CN1CCN(Cc2cc(-c3ccc(Cl)c(Cl)c3)ccc2OCC(=O)NCCc2ccccc2)CC1 [NUCC-0201996] | – | – | 1 to 2 µM | 1.1 µM
CN1CCN(Cc2cc(-c3ccccc3Cl)ccc2OCC(=O)Nc2ccc(Cl)c(Cl)c2)CC1 [NUCC-0201997] | – | – | < 1 µM | < 0.74 µM
CN1CCN(Cc2cc(-c3cccc(Cl)c3)ccc2OCC(=O)Nc2ccc(Cl)c(Cl)c2)CC1 [NUCC-0201998] | – | – | < 1 µM | < 0.74 µM
CN1CCN(Cc2cc(-c3ccc(Cl)cc3)ccc2OCC(=O)Nc2ccc(Cl)c(Cl)c2)CC1 [NUCC-0201999] | – | – | < 1 µM | < 0.74 µM
Cc1cccc(-c2ccc(OCC(=O)Nc3ccc(Cl)c(Cl)c3)c(CN3CCN(C)CC3)c2)c1 [NUCC-0202000] | – | – | < 1 µM | 0.76 µM
CN1CCN(Cc2cc(-c3ccc(Cl)cc3Cl)ccc2OCC(=O)Nc2ccc(Cl)c(Cl)c2)CC1 [NUCC-0202001] | – | – | < 1 µM | < 0.74 µM
CN1CCN(Cc2cc(-c3ccc(Cl)c(Cl)c3)ccc2OCC(=O)Nc2ccc(Cl)c(Cl)c2)CC1 [NUCC-0202002] | – | – | < 1 µM | < 0.74 µM
CN1CCN(Cc2cc(-c3cc(Cl)cc(Cl)c3)ccc2OCC(=O)Nc2ccc(Cl)c(Cl)c2)CC1 [NUCC-0202003] | – | – | < 1 µM | < 0.74 µM
CN1CCN(Cc2cc(-c3ccccc3)ccc2OCC(=O)Nc2ccc(Cl)c(Cl)c2)CC1 [NUCC-0202004] | – | – | < 1 µM | 0.89 µM
CN1CCN(Cc2cc(-c3cccnc3)ccc2OCC(=O)Nc2ccc(Cl)c(Cl)c2)CC1 [NUCC-0202005] | – | – | 5 to 10 µM | 5.5 µM
CN1CCN(Cc2cc(-c3ccncc3)ccc2OCC(=O)Nc2ccc(Cl)c(Cl)c2)CC1 [NUCC-0202006] | – | – | 5 to 10 µM | 5.3 µM
CN1CCN(Cc2cc(-c3cc(C(F)(F)F)cnc3Cl)ccc2OCC(=O)Nc2ccc(Cl)c(Cl)c2)CC1 [NUCC-0202007] | – | – | 2 to 5 µM | 4.6 µM
CN1CCN(Cc2ccc(-c3ccc(Cl)c(Cl)c3)cc2OCC(=O)NCc2ccc(Cl)cc2)CC1 [NUCC-0202008] | – | – | 1 to 2 µM | 1.2 µM
CN1CCN(Cc2ccc(-c3ccc(Cl)cc3)cc2OCC(=O)NCc2ccc(Cl)cc2)CC1 [NUCC-0202009] | – | – | 1 to 2 µM | 1 µM
CN1CCN(Cc2ccc(-c3ccc(F)cc3)cc2OCC(=O)NCc2ccc(Cl)cc2)CC1 [NUCC-0202010] | – | – | 5 to 10 µM | 5.7 µM
Cc1ccc(-c2ccc(CN3CCN(C)CC3)c(OCC(=O)NCc3ccc(Cl)cc3)c2)cc1 [NUCC-0202011] | – | – | 1 to 2 µM | 1.5 µM
CN1CCN(Cc2ccc(-c3ccc(C(F)(F)F)cc3)cc2OCC(=O)NCc2ccc(Cl)cc2)CC1 [NUCC-0202012] | – | – | 2 to 5 µM | 2.1 µM
CN1CCN(Cc2ccc(-c3ccc(F)c(C(F)(F)F)c3)cc2OCC(=O)NCc2ccc(Cl)cc2)CC1 [NUCC-0202013] | – | – | 1 to 2 µM | 1.4 µM
CN1CCN(Cc2cc(-c3ccc(Cl)c(Cl)c3)ccc2OCC(=O)Nc2ccc3ncsc3c2)CC1 [NUCC-0202014] | – | – | < 1 µM | 0.81 µM

Compound | solubility thermodynamic at 16 h [1] | DMSO in PBS required to see proton signals in 1H-NMR [2] | IC50 (TRIP8b-HCN1c40; [3]) | IC50 (TRIP8b-HCN1c40; [4])
C=Cc1ccccc1NC(=O)COc1ccc(-c2ccc(Cl)c(Cl)c2)cc1CN1CCN(C)CC1 [NUCC-0202015] | – | – | 1 to 2 µM | 1.1 µM
CN1CCN(Cc2cc(-c3ccc(Cl)c(Cl)c3)ccc2OCC(=O)Nc2ccc(Cl)cc2)CC1 [NUCC-0202016] | – | – | < 1 µM | 0.78 µM
CN1CCN(Cc2cc(-c3ccc(Cl)c(Cl)c3)ccc2COC(=O)Nc2ccc3c(c2)OCO3)CC1 [NUCC-0202017] | – | – | < 1 µM | < 0.74 µM
Cc1ccc(NC(=O)COc2ccc(-c3ccc(Cl)c(Cl)c3)cc2CN2CCN(C)CC2)cc1 [NUCC-0202018] | – | – | 1 to 2 µM | 1 µM
COc1ccc(NC(=O)COc2ccc(-c3ccc(Cl)c(Cl)c3)cc2CN2CCN(C)CC2)cc1 [NUCC-0202019] | – | – | 1 to 2 µM | 1.3 µM
CN1CCN(Cc2cc(-c3ccc(N)cc3)ccc2OCC(=O)Nc2ccc(Cl)c(Cl)c2)CC1 [NUCC-0202020] | – | – | 1 to 2 µM | 1.5 µM
CN1CCN(Cc2cc(-c3ccc4c(c3)OCCO4)ccc2OCC(=O)Nc2ccc(Cl)c(Cl)c2)CC1 [NUCC-0202021] | – | – | 1 to 2 µM | 1.4 µM
CN1CCN(Cc2cc(-c3cccc(S(C)(=O)=O)c3)ccc2OCC(=O)Nc2ccc(Cl)c(Cl)c2)CC1 [NUCC-0202022] | – | – | 2 to 5 µM | 2.7 µM
CN1CCN(Cc2cc(-c3ccc(Cl)c(C(F)(F)F)c3)ccc2OCC(=O)Nc2ccc(Cl)c(Cl)c2)CC1 [NUCC-0202023] | – | – | 1 to 2 µM | 1.3 µM
CN1CCN(Cc2cc(-c3ccc(CO)cc3)ccc2OCC(=O)Nc2ccc(Cl)c(Cl)c2)CC1 [NUCC-0202024] | – | – | 2 to 5 µM | 3.2 µM
CC(Oc1ccc(-c2ccc(Cl)cc2)cc1CN1CCN(C)CC1)C(=O)NCc1ccc(Cl)cc1 (stereo not drawn) [NUCC-0202025] | – | – | 1 to 2 µM | 1.5 µM
CC(Oc1ccc(-c2ccc(Cl)cc2Cl)cc1CN1CCN(C)CC1)C(=O)NCc1ccc(Cl)cc1 (stereo not drawn) [NUCC-0202026] | – | – | < 1 µM | 0.91 µM
CC(Oc1ccc(-c2ccc(Cl)c(Cl)c2)cc1CN1CCN(C)CC1)C(=O)NCc1ccc(Cl)cc1 (stereo not drawn) [NUCC-0202027] | – | – | < 1 µM | 0.94 µM
CC(Oc1ccc(-c2cc(Cl)cc(Cl)c2)cc1CN1CCN(C)CC1)C(=O)NCc1ccc(Cl)cc1 (stereo not drawn) [NUCC-0202028] | – | – | < 1 µM | 0.86 µM
CC(Oc1ccc(-c2ccc(C(F)(F)F)cc2)cc1CN1CCN(C)CC1)C(=O)NCc1ccc(Cl)cc1 (stereo not drawn) [NUCC-0202029] | – | – | 2 to 5 µM | 4.5 µM
CC(Oc1ccc(-c2ccc(O)cc2)cc1CN1CCN(C)CC1)C(=O)NCc1ccc(Cl)cc1 (stereo not drawn) [NUCC-0202030] | – | – | 10 to 20 µM | 14 µM
Cc1ccc(-c2ccc(OC(C)C(=O)NCc3ccc(Cl)cc3)c(CN3CCN(C)CC3)c2)cc1 (stereo not drawn) [NUCC-0202031] | – | – | 2 to 5 µM | 3.4 µM
CC(Oc1ccc(-c2ccc(F)cc2)cc1CN1CCN(C)CC1)C(=O)NCc1ccc(Cl)cc1 (stereo not drawn) [NUCC-0202032] | – | – | 2 to 5 µM | 3.2 µM
CC(Oc1ccc(-c2ccc(F)c(C(F)(F)F)c2)cc1CN1CCN(C)CC1)C(=O)NCc1ccc(Cl)cc1 (stereo not drawn) [NUCC-0202033] | – | – | < 1 µM | 0.99 µM
CC(Oc1ccc(-c2ccc([N+](=O)[O-])cc2)cc1CN1CCN(C)CC1)C(=O)NCc1ccc(Cl)cc1 (stereo not drawn) [NUCC-0202034] | – | – | 2 to 5 µM | 2.7 µM
Cc1ccc([C@@H](C)NC(=O)C(C)Oc2ccc(-c3ccc(Cl)cc3)cc2CN2CCN(C)CC2)cc1 (stereo partly drawn) [NUCC-0202046] | – | – | < 1 µM | 0.84 µM
Cc1ccc([C@@H](C)NC(=O)C(C)Oc2ccc(-c3ccc(Cl)c(Cl)c3)cc2CN2CCN(C)CC2)cc1 (stereo partly drawn) [NUCC-0202047] | – | – | < 1 µM | < 0.74 µM
Cc1ccc(-c2ccc(OC(C)C(=O)N[C@H](C)c3ccc(C)cc3)c(CN3CCN(C)CC3)c2)cc1 (stereo partly drawn) [NUCC-0202048] | – | – | 1 to 2 µM | 1.9 µM
Cc1ccc([C@@H](C)NC(=O)C(C)Oc2ccc(-c3cc(Cl)cc(Cl)c3)cc2CN2CCN(C)CC2)cc1 (stereo partly drawn) [NUCC-0202049] | – | – | < 1 µM | < 0.74 µM
Cc1ccc(C(C)NC(=O)C(C)Oc2ccc(-c3cc(Cl)cc(-c4cc(Cl)cc(Cl)c4)c3)cc2CN2CCN(C)CC2)cc1 (stereo not drawn) [NUCC-0202050] | – | – | < 1 µM | < 0.74 µM
CN1CCN(Cc2cc(-c3ccc(N)cc3)ccc2OCC(=O)NCc2ccc(Cl)cc2)CC1 [NUCC-0202053] | – | – | 10 to 20 µM | 18 µM
CN1CCN(Cc2cc(-c3ccc(Cl)cc3Cl)ccc2OCC(=O)NCc2ccc(Cl)cc2)CC1 [NUCC-0202054] | – | – | < 1 µM | < 0.74 µM
